The test system of one data set is Skp2. Put plainly: Skp2 immunohistochemical staining of xenografted tumors. The format is in vivo, Scid mice.
Data set [1] concerns MiaPaCa-2 human pancreatic cancer cells xenograft. Put plainly: Subcutaneous MiaPaCa-2 xenograft tumor growth in Scid mice. The format is in vivo.
Data set [2] deals with pancreatic cancer (PC) cells. Put plainly: MTT proliferation of human and murine pancreatic cancer cells (overall statements, combinations). It is filed as cell-based. The settings on record: MiaPaCa-2, PANC-1, TB33117, KPCWT942.
The conditions of data set [3]: mouse, in vivo.
Data set [4] has as its system MiaPaCa-2 cells. Put plainly: Cell death by propidium iodide flow cytometry. The format is cell-based, human. The settings on record: MiaPaCa-2, 0.05 μM, 48 h. As for the experimental part:
(§1) ATO inhibited PC cell growth by stimulation of apoptosis. The effects of PhAs-LHP on cell cycle and cell death were determined by flow cytometry analysis. In MiaPaCa-2 cells, after 48 h treatment, ATO induced about 15% cell death at 0.5 μM while PhAs-LHP (0.05 μM) caused 24% cell death at ten times lower concentrations than ATO (Figure 4A). Likewise, after 24 h treatment, ATO (2 μM) and PhAs-LHP (0.2 μM) induced cell cycle arrest at the G2/M phase in PANC-1 cells (Figure 4B).
Figure 4 PhAs-LHP induced cell death and cell cycle arrest more potently than ATO. MiaPaCa-2 cells were treated with ATO (0.5 μM) or PhAs-LHP (0.05 μM) for 48 h (A). PANC-1 cells were treated with ATO (2 μM) or PhAs-LHP (0.2 μM) for 24 h (B). Both MiaPaCa-2 and PANC-1 cells were then stained with propidium iodide (PI) and subjected to flow cytometry analysis. Numbers indicate the percent of PI-negative cells of a total of 10,000 cells analyzed per condition (A). […]
Cell death and cell cycle were assayed using propidium iodide (PI) and flow cytometry. […] Samples were processed with the FACSymphony A3 flow cytometer (BD Biosciences), and the acquired data were analyzed with the FlowJo software (BD Biosciences, San Jose, CA, USA).

The test system of data set [5] is MiaPaCa-2 cells. The settings on record: MiaPaCa-2, 48 h, MTT.
Data set [6] deals with normal pancreatic epithelial cell line (HPDE). The format is cell-based.
The subject of data set [7] is PANC-1 cells. Put plainly: Cell cycle by propidium iodide flow cytometry. It is filed as cell-based, human. The settings on record: PANC-1, 0.2 μM, 24 h. The procedure:
as §1
Figure 4 PhAs-LHP induced cell death and cell cycle arrest more potently than ATO. MiaPaCa-2 cells were treated with ATO (0.5 μM) or PhAs-LHP (0.05 μM) for 48 h (A). PANC-1 cells were treated with ATO (2 μM) or PhAs-LHP (0.2 μM) for 24 h (B). Both MiaPaCa-2 and PANC-1 cells were then stained with propidium iodide (PI) and subjected to flow cytometry analysis. Numbers indicate the percent of PI-negative cells of a total of 10,000 cells analyzed per condition (A). TEXT PRINTED IN THE PICTURE: (A) ATO: % PI Negative 85.4 (0.5 μM) | (A) PhAs-LHP: % PI Negative 75.9 (0.05 μM) | (B) ATO: %G1 28.9 (2 μM); %S 16.7 (2 μM); %G2 48.9 (2 μM) | (B) PhAs-LHP: %G1 39.3 (0.2 μM); %S 19.8 (0.2 μM); %G2 38.6 (0.2 μM)
Cell death and cell cycle were assayed using propidium iodide (PI) and flow cytometry. Cells were treated with ATO or PhAs-LHP with the concentrations indicated in the text for 48 h for measuring cell death or 24 h for determining cell cycle arrest. All floating and adhering cells were then trypsinized and washed two times with cold phosphate-buffered saline (PBS). For cell death assays, cells were harvested and resuspended in PBS containing 1 μg/mL PI. For cell cycle analysis, cells were harvested and resuspended in PBS containing 0.1% Triton X-100, 50 μg/mL PI, and 10 μg/mL RNaseA (Thermo Scientific, Melbourne, Australia) and then incubated at 37 °C for 15 min. Samples were processed with the FACSymphony A3 flow cytometer (BD Biosciences), and the acquired data were analyzed with the FlowJo software (BD Biosciences, San Jose, CA, USA).

The conditions of data set [8]: in vivo.
A further data set has as its system TB33117 cells. The note with it: TB33117, 48 h, MTT.
Data set [9] concerns PANC-1 cells. The note with it: PANC-1, 48 h, MTT.
[10] abbreviates: read-out: IC50 inhibition of PC cell proliferation.

Take `Nc1ccn([C@@H]2O[C@H](CO)[C@@H](O)C2(F)F)c(=O)n1` [Gem, gemcitabine, reference compound]: the “levels of Skp2 in tumors” value in the data set on Skp2 (50 mg/kg i.p., vs non-treatment control, IHC) is listed as “reduced”. Besides, the “PC growth (tumor volume, tumor weight)” value in data set [1] (50 mg/kg i.p. every 4 days, alone, vs control) is on record as “significantly decreased PC growth”. For the same compound, the “effect of pre-treatment on inhibition of PC cell growth by ATO” value in [2] (24 h pre-incubation with Gem, then 48 h ATO) is given as “enhanced the inhibitory effects of ATO”.

`Cc1nc(Nc2[nH]nc3c2CN(C(=O)N[C@H](CN(C)C)c2ccccc2)C3(C)C)c2sccc2n1` [PF-3758309]: in data set [2] (24 h pre-incubation with PF-3758309, then 48 h ATO), the “effect of pre-treatment on inhibition of PC cell growth by ATO” value is “enhanced the inhibitory effects of ATO”.

With `CC(=O)N[C@H]1CS[As](c2ccccc2)SC[C@@H](C(N)=O)NC(=O)[C@H](CCCNC(=N)N)NC(=O)[C@H](CCCNC(=N)N)NC(=O)[C@H](CC(C)C)NC(=O)[C@H](CCCNC(=N)N)NC(=O)[C@H](Cc2c[nH]cn2)NC(=O)[C@H](Cc2ccc(O)cc2)NC(=O)[C@H](C)NC1=O` (some centres unmarked) [PhAs-LHP], the “arsenic (As) in brain, heart, liver and kidney” value in data set [3] was “not detected”. This compound displayed a cell death with MiaPaCa-2 cells [4] of 24%. In the data set with MiaPaCa-2 cells [4] (of 10,000 cells), the “% PI Negative” value turned out to be 75.9%. Besides, the IC50 in the data set with MiaPaCa-2 cells [5] (setting [10]) came out at 0.12 ± 0.1 µM. Besides, in the data set with Skp2 (mouse, in vivo), the “levels of Skp2 in tumors, combination with gemcitabine” value is listed as “did not further reduce the expression of Skp2”. In addition, the “levels of Skp2 in tumors” value in the data set with Skp2 (mouse, in vivo, ip) was “reduced”. Further, the “reduction of proliferation of HPDE” value in data set [6] came out at 10%. Also, in the data set with PANC-1 cells [7], the “%G1” value is given as 39.3%, the “%G2” value is 38.6% and the “%S” value was found to be 19.8%. Moreover, in [1] (mouse, in vivo), the “further reduction in tumor volumes and weight on top of Gem” value is on record as “further decreased tumor volumes”; the “relative tumor growth (Day 7 volume = 100%)” value is recorded as “significantly slower than of Gem plus PAO”. Also, in data set [1] (mouse, in vivo, ip), the “pancreatic tumor growth (tumor volume, tumor weight)” value was “significantly suppressed pancreatic tumor growth”. The “toxicity (mouse body weight)” value in data set [8] is on record as “No toxicity was observed”. The IC50 in the data set on TB33117 cells (setting [10]) worked out at 0.2 ± 0.05 µM. In addition, in the data set with PANC-1 cells [9] (setting [10]), the IC50 turned out to be 0.21 ± 0.03 µM.

Take CAYHRLRRC [LHP, reference compound]: the “effect on cell proliferation” value in the data set with MiaPaCa-2 cells [5], with TB33117 cells and with PANC-1 cells [9] was “did not affect the proliferation” in each case.

For the origin of these results see publication PMC11546692 (International Journal of Molecular Sciences, 2024).
